Reference: US9134327B2, “STAT3 and TYK2 as drug targets for neurodegenerative diseases” (Biotechnology Research Corporation Limited, priority 2008, dated 2015)

B1: NGF: growth factor used to differentiate PC12 cells; positive control in the reporter assay (protein, UniProt P25427 122-241, looked up)
Beta-nerve growth factor: SSTHPVFHMGEFSVCDSVSVWVGDKTTATDIKGKEVTVLGEVNINNSVFKQYFFETKCRAPNPVESGCRGIDSKHWNSYCTTTHTFVKALTTDDKQAAWRFIRIDTACVCVLSRKAARRG

Legend:
STAT3 (P-Tyr, Tyr705) = test: Tyrosine phosphorylation of STAT3 in cortical neurons, immunoblot; format: cell-based, rat; conditions: for inhibition of Aβ-induced tyrosine phosphorylation of STAT3: primary cortical neurons pretreated with inhibitor 2 hrs, then Aβ25-35 for 4 hrs or 24 hrs
Method: FIG. 2: Tyrosine phosphorylation of STAT3 is increased in cultured cortical neurons stimulated with Aβ25-35. Primary cortical neurons at 7 DIV were treated with Aβ25-35 (40 μM; H2O served as solvent control) for various times as indicated. Cell lysates were collected and subjected to immunoblotting using P-Tyr STAT3 and total STAT3 antibodies.
(§1) FIG. 4: Tyk2 is required for beta-amyloid peptide-induced tyrosine phosphorylation of STAT3 and neuronal cell death. A. Primary cortical neurons were pretreated with various inhibitors including a potent inhibitor of JAK (JAK inhibitor 1), a JAK2 inhibitor (AG490), a Src tyrosine kinase inhibitor (PP2) and a protein synthesis inhibitor (cycloheximide) for 2 hrs as indicated, followed by treatment with Aβ25-35 peptide for 4 hrs or 24 rs. The cell lysates were immunoblotted with P-Tyr STAT3 and total STAT3 antibody. B. Primary cortical neurons were treated with Aβ25-35. The cell lysates were immunoprecipitated using Tyk2 or JAK2 antibody, and then subjected to Western blot analysis for phospho-tyrosine (P-Tyr) antibody. C. Primary cortical neurons prepared from Tyk2^−/− mice were treated with Aβ25-35. The cell lysates were subjected to immunoblotting using P-Tyr STAT3, total STAT3 and caspase-3 antibody. Quantification analysis of fold change in tyrosine phosphorylated STAT3 and cleaved caspase-3 (bottom panels).
Cultured rat cortical neurons were used as a cell culture model to investigate the role of STAT3 tyrosine phosphorylation in AD. The cortical neurons (7 DIV) were treated with Aβ peptide 25-35.
Since Aβ induced tyrosine phosphorylation of STAT3, the next aim was to identify the upstream regulators of STAT3. Cortical neurons were pre-treated with different inhibitors prior to […] treatment. […] Cortical neurons were treated with Aβ peptide for 1 hr. Endogenous Tyk2 or JAK2 were immunoprecipitated by specific antibodies, and the precipitates were detected by monoclonal phospho-tyrosine antibody, 4G10.
Preparation of Brain Extracts, Cell Extracts, and Western Blots: Four Brain Parts including cortex, hippocampus, cerebellum and striatum were dissected from transgenic mice of various stages (from 2 months to 18 months) and kept on dry ice. Frozen brain tissues were homogenized in homogenizing buffer (25 mM Tris-HCl, pH 7.4, 150 mM NaCl, 1 mM EDTA, pH 7.4, 50 mM NaF) with various protease inhibitors. The supernatant was kept for Western Blotting and the pellets were reextracted using RIPA lysis buffer (150 mM NaCl, 1% (v/v) Nonidet P-40, 0.5% deoxycholic acid, 0.1% (w/v) SDS) containing various protease inhibitors (2 μg/ml aprotinin, 1 mM phenylmethylsulfonyl fluoride, 5 mM benzamidine, 1 mM sodium orthovanadate (NaOV), and 10 μg/ml soybean trypsin inhibitor). Primary cultured cortical neurons or PC12 cells were harvested and lysed in RIPA lysis buffer containing protease inhibitors.

STAT3 = STAT3 luciferase reporter (pSTAT3-Luc) in PC12 cells; format: cell-based; conditions: PC12 cells differentiated by NGF 4 days, treated 1 day
Method: (§2) FIG. 5: Transcription activity of STAT3 in PC12 cells and iNOS RNA in cultured cortical neurons increases upon stimulation with Aβ25-35. A. PC12 cells were transfected with a STAT1 (pGAS-Luc) or STAT3 (pSTAT3-Luc) reporter gene construct together with an internal control plasmid (β-galactosidase-pCMV). The cells were differentiated by NGF for 4 days, and were then treated with Aβ25-35 or NGF (positive control) for 1 day. Luciferase activity was measured and normalized against the β-galactosidase activity in the samples. Results were normalized with β-galactosidase activity; mean±S.E., n=3; *, p<0.05. B. Primary cortical neurons at 7 DIV were pretreated with STAT3 inhibitor or JAK inhibitor I for 30 minutes, followed by Aβ25-35 (40 μM) treatment for 6 hours. Total RNA was collected and subjected to reverse transcription. The cDNA was then subjected to real-time PCR analysis using iNOS primers.
(§3) To further characterize if Aβ peptide effects STAT3 transcriptional activity, PC12 cells were transfected with a luciferase construct linked to the STAT3-response enhancer element (pSTAT3-Luc). The luciferase construct linked to the STAT1-response enhancer element (pGAS-Luc) was used as a control.

iNOS gene expression = test: iNOS mRNA in primary cortical neurons, real-time PCR; format: cell-based
Method: as §2
Primary cortical neurons were treated with Aβ peptide for 6 hr. […]
Quantitative RT-PCR: Total RNA was isolated from Aβ-treated cortical neurons using RNeasy mini kit (Qiagen) according to the manufacturer's instruction. […] Quantitative PCR was performed with specific primers targeting specific genes using Bio-Rad MX3000P real-time PCR system.

Tyk2 = Tyk2 tyrosine phosphorylation in cortical neurons, immunoprecipitation and phospho-tyrosine blot; format: cell-based; conditions: cortical neurons treated 1 hr; IP Tyk2, 4G10 blot
Description: as §1
Since Aβ induced tyrosine phosphorylation of STAT3, the next aim was to identify the upstream regulators of STAT3. Cortical neurons were pre-treated with different inhibitors prior to iv treatment. […] Endogenous Tyk2 or JAK2 were immunoprecipitated by specific antibodies, and the precipitates were detected by monoclonal phospho-tyrosine antibody, 4G10.

STAT1 = STAT1 luciferase reporter (pGAS-Luc) in PC12 cells; format: cell-based; conditions: PC12 cells differentiated by NGF 4 days, treated 1 day
Method: as §2, §3

Row | Molecule | inhibition of Aβ-induced tyrosine phosphorylation of STAT3 (STAT3 (P-Tyr, Tyr705)) | STAT3 promoter activity (pSTAT3-Luc luciferase) (STAT3) | STAT1 promoter activity (pGAS-Luc luciferase) (STAT1) | also measured
1 | N#C/C(=C/c1ccc(O)c(O)c1)C(=O)NCc1ccccc1 [AG490] | did not exhibit similar inhibitory effects | – | – | –
2 | Aβ peptide 25-35: β-amyloid peptide fragment 25-35 used to stimulate neurons and PC12 cells (GSNKGAIIGLM; Amyloid-beta protein 42; UniProt P05067 696-706, looked up, fragment) | – | only induced the STAT3 promoter activity | only induced the STAT3 promoter activity | iNOS gene expression level after treatment (iNOS gene expression; primary cortical neurons, 6 hr treatment): increased; tyrosine phosphorylation of STAT3 induced by treatment (STAT3 (P-Tyr, Tyr705); cortical neurons 7 DIV, Aβ25-35 40 μM, up to 4 hrs): significant increase in tyrosine phosphorylation of STAT3; Tyk2 tyrosine phosphorylation after treatment (Tyk2): could be detected
3 | CC(C)(C)n1nc(-c2ccc(Cl)cc2)c2c(N)ncnc21 [PP2] | neither the Src kinase inhibitor PP2 nor the protein synthesis inhibitor cycloheximide affected | – | – | –
4 | CC(C)(C)c1nc2c3cc[nH]c(=O)c3c3cc(F)ccc3c2[nH]1 [JAK inhibitor 1] | completely inhibited | – | – | block of Aβ-induced increase in iNOS gene expression (iNOS gene expression; primary cortical neurons 7 DIV, 30 minutes pretreatment, then Aβ25-35 40 μM for 6 hours): blocked
5 | C[C@@H]1C[C@@H]([C@H](O)CC2CC(=O)NC(=O)C2)C(=O)[C@@H](C)C1 [cycloheximide] | neither the Src kinase inhibitor PP2 nor the protein synthesis inhibitor cycloheximide affected | – | – | –
6 | B1 | – | induced the promoter activity of both STAT3 and STAT1 | induced the promoter activity of both STAT3 and STAT1 | –
